Test [1] concerns the target Beta-lactamase OXA-1 (Escherichia coli) (UniProt P13661). The experiment in a line: Steady state kinetic as limiting rate of OXA-1 beta-lactamase hydrolysis.
Test [2] deals with Beta-lactamase (Enterobacter cloacae) (UniProt P05364). Nature of the test: Steady state kinetic as limiting rate of Enterobacter cloacae P99 Beta-lactamase catalyzed hydrolysis.
Test [3] has as its target Beta-lactamase TEM (Escherichia coli) (UniProt P62593). The experiment in a line: Steady state kinetic as limiting rate of TEM-2 beta-lactamase hydrolysis.
Test [4] concerns the target Beta-lactamase (Staphylococcus aureus) (UniProt P00807). Nature of the test: Steady state kinetic as limiting rate of Staphylococcus aureus PC1 Beta-lactamase hydrolysis.
The target of test [5] is D-alanyl-D-alanine carboxypeptidase (Streptomyces sp. R61) (UniProt P15555). The experiment in a line: Second order rate constant for inactivation of Streptomyces R61 D-alanyl-D-alanine carboxypeptidase. The note with it: Streptomyces spp.

Drawing on ChEMBL document CHEMBL1137898, “Benzopyranones with retro-amide side chains as (inhibitory) beta-lactamase substrates” (Bioorg Med Chem Lett, 2004), this text covers K cat and K for five molecules.

Bounds are passed on as bounds.

Sequence of Beta-lactamase OXA-1 (Escherichia coli) (P13661 whole entry): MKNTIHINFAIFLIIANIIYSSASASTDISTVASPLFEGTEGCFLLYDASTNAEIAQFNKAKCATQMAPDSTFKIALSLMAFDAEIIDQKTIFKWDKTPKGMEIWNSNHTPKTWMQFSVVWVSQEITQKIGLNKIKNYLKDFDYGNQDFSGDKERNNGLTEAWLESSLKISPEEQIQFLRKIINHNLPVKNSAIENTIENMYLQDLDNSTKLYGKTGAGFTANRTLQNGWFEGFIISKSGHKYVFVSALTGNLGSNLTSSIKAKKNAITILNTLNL
Sequence of Beta-lactamase (Staphylococcus aureus) (P00807 whole entry): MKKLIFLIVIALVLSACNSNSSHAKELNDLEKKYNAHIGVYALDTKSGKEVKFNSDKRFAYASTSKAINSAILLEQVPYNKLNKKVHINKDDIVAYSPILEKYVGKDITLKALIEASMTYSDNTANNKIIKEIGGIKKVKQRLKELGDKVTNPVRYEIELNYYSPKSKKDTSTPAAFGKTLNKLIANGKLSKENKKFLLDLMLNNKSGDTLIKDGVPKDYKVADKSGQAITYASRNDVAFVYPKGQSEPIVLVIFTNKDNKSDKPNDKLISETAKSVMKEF
Sequence of Beta-lactamase (Enterobacter cloacae) (P05364 21-381 limits assumed): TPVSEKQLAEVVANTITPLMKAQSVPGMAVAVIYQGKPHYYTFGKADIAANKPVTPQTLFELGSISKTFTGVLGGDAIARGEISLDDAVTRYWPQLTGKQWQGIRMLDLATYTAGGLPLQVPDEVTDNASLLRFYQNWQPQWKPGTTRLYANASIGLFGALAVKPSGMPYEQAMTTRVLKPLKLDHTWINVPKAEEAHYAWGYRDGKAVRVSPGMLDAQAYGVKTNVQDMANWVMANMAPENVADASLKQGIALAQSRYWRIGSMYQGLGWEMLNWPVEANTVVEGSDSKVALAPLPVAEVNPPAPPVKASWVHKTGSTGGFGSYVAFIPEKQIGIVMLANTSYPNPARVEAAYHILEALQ
Sequence of Beta-lactamase TEM (Escherichia coli) (P62593 whole entry): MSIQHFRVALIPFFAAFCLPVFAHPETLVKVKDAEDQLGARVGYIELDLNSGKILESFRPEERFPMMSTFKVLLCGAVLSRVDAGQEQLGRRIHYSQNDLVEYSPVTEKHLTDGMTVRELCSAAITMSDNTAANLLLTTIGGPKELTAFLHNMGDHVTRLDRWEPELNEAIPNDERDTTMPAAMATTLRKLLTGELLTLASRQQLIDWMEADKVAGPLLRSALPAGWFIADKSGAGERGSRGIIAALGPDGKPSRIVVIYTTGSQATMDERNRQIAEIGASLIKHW
Sequence of D-alanyl-D-alanine carboxypeptidase (Streptomyces sp. R61) (P15555 whole entry): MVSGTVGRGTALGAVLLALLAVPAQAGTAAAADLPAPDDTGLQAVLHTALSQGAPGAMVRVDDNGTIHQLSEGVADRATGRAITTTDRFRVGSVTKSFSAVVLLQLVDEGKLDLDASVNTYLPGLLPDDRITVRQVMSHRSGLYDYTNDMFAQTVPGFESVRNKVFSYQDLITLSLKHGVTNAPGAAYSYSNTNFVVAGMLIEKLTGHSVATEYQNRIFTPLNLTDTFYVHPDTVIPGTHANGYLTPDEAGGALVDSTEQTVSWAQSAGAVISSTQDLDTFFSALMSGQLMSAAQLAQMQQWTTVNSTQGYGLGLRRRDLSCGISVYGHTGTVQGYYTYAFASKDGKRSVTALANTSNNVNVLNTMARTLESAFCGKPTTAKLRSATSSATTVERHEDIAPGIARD

With `CC(=O)OCC1=C(C(=O)O)N2C(=O)[C@@H](NC(=O)Cc3cccs3)[C@H]2SC1`, the K cat in test [1] is 1.2 s⁻¹; in test [2] it was 200 s⁻¹; in test [3], 120 s⁻¹; in test [4] it was 0.001 s⁻¹.

On to `O=C(O)c1ccc2c(c1)OC(=O)C(C(=O)NCc1ccccc1)C2` (stereo not given), for which the K cat in test [2] was 1.18 s⁻¹; in test [3], over 0.02 s⁻¹; in test [4] it was over 0.005 s⁻¹.

Take `O=C(Cc1ccccc1)NC1Cc2ccc(C(=O)O)cc2OC1=O` (stereo not given): the figures for the K cat in test [2], in test [3] and in test [4] were 5.6 s⁻¹, over 1 s⁻¹ and 0.02 s⁻¹, respectively.

`O=C(O)c1cccc2c1OC(=O)C(C(=O)NCc1ccccc1)C2` (stereo not given): the K cat is 0.25 s⁻¹ in test [1], 0.44 s⁻¹ in test [2], 25.5 s⁻¹ in test [3] and 0.01 s⁻¹ in test [4]. In addition, the K in test [5] is 22 1/sM.

`O=C(Cc1ccccc1)NC1Cc2cccc(C(=O)O)c2OC1=O` (stereo not given): the K cat in test [1] is 1.2 s⁻¹; in test [2], 5.4 s⁻¹; in test [3], 2.07 s⁻¹; in test [4], 0.0047 s⁻¹. For the same molecule, the K in test [5] was 1.5 1/sM.
